Measurements as given in PubChem BioAssay (NCI).
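Assay format: 96-well plates, 48-hour exposure. TGI: concentration producing complete growth inhibition.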

Legend:
Test in all cases: inhibition of tumour cell growth, NCI panel, 48 h
NCI-H460 lung = tested on: NCI-H460 lung
HS 578T breast = tested on: HS 578T breast
NCI-H23 lung = tested on: NCI-H23 lung
OVCAR-5 ovarian = tested on: OVCAR-5 ovarian
MCF7 breast = tested on: MCF7 breast
MDA-MB-435 = tested on: MDA-MB-435
SK-OV-3 ovarian = tested on: SK-OV-3 ovarian
UACC-257 melanoma = tested on: UACC-257 melanoma
BT-549 breast = tested on: BT-549 breast
MOLT-4 leukemia = tested on: MOLT-4 leukemia
786-0 renal = tested on: 786-0 renal
ACHN renal = tested on: ACHN renal
SF-539 CNS = tested on: SF-539 CNS
OVCAR-8 ovarian = tested on: OVCAR-8 ovarian
NCI-H226 lung = tested on: NCI-H226 lung
HCT-116 colon = tested on: HCT-116 colon
EKVX NSCLC = tested on: EKVX NSCLC
MALME-3M melanoma = tested on: MALME-3M melanoma
OVCAR-4 ovarian = tested on: OVCAR-4 ovarian
IGROV1 ovarian = tested on: IGROV1 ovarian
CCRF-CEM leukemia = tested on: CCRF-CEM leukemia
HOP-92 NSCLC = tested on: HOP-92 NSCLC
CAKI-1 renal = tested on: CAKI-1 renal
UO-31 renal = tested on: UO-31 renal
A498 renal = tested on: A498 renal
SW-620 colon = tested on: SW-620 colon
NCI-H522 lung = tested on: NCI-H522 lung
TK-10 renal = tested on: TK-10 renal
HCT-15 colon = tested on: HCT-15 colon
RXF 393 renal = tested on: RXF 393 renal
SNB-75 CNS = tested on: SNB-75 CNS
LOX IMVI melanoma = tested on: LOX IMVI melanoma
HCC-2998 colon = tested on: HCC-2998 colon
DU-145 prostate = tested on: DU-145 prostate
COLO 205 colon = tested on: COLO 205 colon
SK-MEL-5 melanoma = tested on: SK-MEL-5 melanoma
RPMI-8226 leukemia = tested on: RPMI-8226 leukemia
UACC-62 melanoma = tested on: UACC-62 melanoma
NCI/ADR-RES ovarian = tested on: NCI/ADR-RES ovarian
M14 melanoma = tested on: M14 melanoma
SNB-19 CNS = tested on: SNB-19 CNS
T-47D breast = tested on: T-47D breast
SN12C renal = tested on: SN12C renal
A549 NSCLC = tested on: A549 NSCLC
U251 CNS = tested on: U251 CNS
SF-295 CNS = tested on: SF-295 CNS
MDA-N = tested on: MDA-N
K-562 leukemia = tested on: K-562 leukemia
HT29 colon = tested on: HT29 colon
HL-60(TB) leukemia = tested on: HL-60(TB) leukemia
SK-MEL-28 melanoma = tested on: SK-MEL-28 melanoma
KM12 colon = tested on: KM12 colon
MDA-MB-231 breast = tested on: MDA-MB-231 breast
SF-268 CNS = tested on: SF-268 CNS
HOP-62 NSCLC = tested on: HOP-62 NSCLC
SK-MEL-2 melanoma = tested on: SK-MEL-2 melanoma
OVCAR-3 ovarian = tested on: OVCAR-3 ovarian
SR leukemia = tested on: SR leukemia
PC-3 prostate = tested on: PC-3 prostate

SMILES: NCCCCN(CCCN)Cc1ccc2ccccc2c1
- TGI (NCI-H460 lung): 55.2 µM
- TGI (HS 578T breast): 42.9 µM
- TGI (NCI-H23 lung): > 100 µM
- TGI (OVCAR-5 ovarian): > 100 µM
- TGI (MCF7 breast): > 100 µM
- TGI (MDA-MB-435): > 100 µM
- TGI (SK-OV-3 ovarian): > 100 µM
- TGI (UACC-257 melanoma): > 100 µM
- TGI (BT-549 breast): > 100 µM
- TGI (MOLT-4 leukemia): > 100 µM
- TGI (786-0 renal): > 100 µM
- TGI (ACHN renal): 53.8 µM
- TGI (SF-539 CNS): > 100 µM
- TGI (OVCAR-8 ovarian): > 100 µM
- TGI (NCI-H226 lung): > 100 µM
- TGI (HCT-116 colon): > 100 µM
- TGI (EKVX NSCLC): > 100 µM
- TGI (MALME-3M melanoma): > 100 µM
- TGI (OVCAR-4 ovarian): > 100 µM
- TGI (IGROV1 ovarian): > 100 µM
- TGI (CCRF-CEM leukemia): > 100 µM
- TGI (HOP-92 NSCLC): > 100 µM
- TGI (CAKI-1 renal): 33 µM
- TGI (UO-31 renal): 71 µM
- TGI (A498 renal): > 100 µM
- TGI (SW-620 colon): > 100 µM
- TGI (NCI-H522 lung): 37.6 µM
- TGI (TK-10 renal): > 100 µM
- TGI (HCT-15 colon): > 100 µM
- TGI (RXF 393 renal): > 100 µM
- TGI (SNB-75 CNS): 22.8 µM
- TGI (LOX IMVI melanoma): > 100 µM
- TGI (HCC-2998 colon): 27.3 µM
- TGI (DU-145 prostate): > 100 µM
- TGI (COLO 205 colon): > 100 µM
- TGI (SK-MEL-5 melanoma): > 100 µM
- TGI (RPMI-8226 leukemia): > 100 µM
- TGI (UACC-62 melanoma): > 100 µM
- TGI (NCI/ADR-RES ovarian): > 100 µM
- TGI (M14 melanoma): > 100 µM
- TGI (SNB-19 CNS): 55 µM
- TGI (T-47D breast): > 100 µM
- TGI (SN12C renal): 46.3 µM
- TGI (A549 NSCLC): > 100 µM
- TGI (U251 CNS): > 100 µM
- TGI (SF-295 CNS): > 100 µM
- TGI (MDA-N): 51.7 µM
- TGI (K-562 leukemia): > 100 µM
- TGI (HT29 colon): > 100 µM
- TGI (HL-60(TB) leukemia): > 100 µM
- TGI (SK-MEL-28 melanoma): > 100 µM
- TGI (KM12 colon): > 100 µM
- TGI (MDA-MB-231 breast): > 100 µM
- TGI (SF-268 CNS): 44 µM

SMILES: COc1ccc2nc3cc([N+](=O)[O-])ccc3c(Nc3ccc(S(=O)(=O)N=C(N)N)cc3)c2c1
- TGI (NCI-H460 lung): 25 µM
- TGI (HS 578T breast): > 100 µM
- TGI (HOP-62 NSCLC): > 100 µM
- TGI (NCI-H23 lung): > 100 µM
- TGI (OVCAR-5 ovarian): > 100 µM
- TGI (MCF7 breast): 96.4 µM
- TGI (MDA-MB-435): > 100 µM
- TGI (SK-OV-3 ovarian): > 100 µM
- TGI (UACC-257 melanoma): > 100 µM
- TGI (BT-549 breast): > 100 µM
- TGI (MOLT-4 leukemia): 14.7 µM
- TGI (786-0 renal): > 100 µM
- TGI (ACHN renal): > 100 µM
- TGI (SF-539 CNS): > 100 µM
- TGI (NCI-H226 lung): > 100 µM
- TGI (HCT-116 colon): 80.5 µM
- TGI (EKVX NSCLC): > 100 µM
- TGI (MALME-3M melanoma): 28.5 µM
- TGI (OVCAR-4 ovarian): > 100 µM
- TGI (CCRF-CEM leukemia): 36.5 µM
- TGI (HOP-92 NSCLC): 77.8 µM
- TGI (CAKI-1 renal): > 100 µM
- TGI (UO-31 renal): > 100 µM
- TGI (A498 renal): > 100 µM
- TGI (SK-MEL-2 melanoma): 44.4 µM
- TGI (SW-620 colon): > 100 µM
- TGI (NCI-H522 lung): 41.3 µM
- TGI (TK-10 renal): > 100 µM
- TGI (HCT-15 colon): > 100 µM
- TGI (OVCAR-3 ovarian): 72.6 µM
- TGI (RXF 393 renal): > 100 µM
- TGI (LOX IMVI melanoma): > 100 µM
- TGI (HCC-2998 colon): 39.3 µM
- TGI (DU-145 prostate): > 100 µM
- TGI (COLO 205 colon): 70.6 µM
- TGI (SK-MEL-5 melanoma): 36.4 µM
- TGI (RPMI-8226 leukemia): 42.6 µM
- TGI (UACC-62 melanoma): 46.9 µM
- TGI (M14 melanoma): > 100 µM
- TGI (SR leukemia): 4.68 µM
- TGI (SNB-19 CNS): > 100 µM
- TGI (T-47D breast): 88.7 µM
- TGI (SN12C renal): > 100 µM
- TGI (A549 NSCLC): > 100 µM
- TGI (U251 CNS): > 100 µM
- TGI (SF-295 CNS): > 100 µM
- TGI (MDA-N): > 100 µM
- TGI (K-562 leukemia): 63.1 µM
- TGI (HT29 colon): > 100 µM
- TGI (HL-60(TB) leukemia): 31.3 µM
- TGI (PC-3 prostate): > 100 µM
- TGI (SK-MEL-28 melanoma): > 100 µM
- TGI (KM12 colon): 57.5 µM
- TGI (MDA-MB-231 breast): > 100 µM
- TGI (SF-268 CNS): > 100 µM
